The supplement of paper PMC4858399

Legend:
Settings in all cases: exposure time 48 h
[1] = system: Caenorhabditis elegans N2; assay: AC50 for larval growth inhibition (Hill fit); higher = less potent
Procedure, shortened: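 Worms were synchronised C. elegans N2 L1 larvae, 50 per well of a 96-well plate, kept 48 h at 20°C in K-medium with killed OP50, 1% DMSO and 0.5–200 µM chemical. Size was taken as COPAS Biosort extinction, log-transformed and averaged per well, using only wells with at least 10 worms. AC50 was estimated by a constrained Hill fit with weighted genetic-algorithm regression; values outside the range are censored.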

[2] = system: Caenorhabditis elegans N2; assay: lowest effective concentration for larval growth inhibition (size below effect threshold); higher = less potent
Procedure, shortened: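 C. elegans N2 L1 larvae (50 per 96-well) were grown 48 h at 20°C in K-medium with killed bacteria, 1% DMSO and 0.5, 1, 5, 10, 50, 100 or 200 µM chemical. The Biosort measured per-worm extinction as size, and these were log-transformed into well means. The lowest effective concentration is the first dose where the plate-adjusted mean size drops under the 5.665 threshold and stays under it at higher doses.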

[3] = system: Caenorhabditis elegans N2; assay: mean nematode size ln(EXT) after 48 h, plate-adjusted (DMSO control set to 6) (ln(EXT), control-adjusted); higher = larger nematodes / less growth inhibition
Procedure, shortened: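 Synchronised C. elegans N2 L1 larvae (50 per well, 4–6 wells per treatment) were grown for 48 h at 20°C in K-medium with killed OP50, 1% DMSO and 0.5–200 µM chemical. The Biosort measured each worm's extinction, and debris was removed by a growth model. Values were natural-logged and averaged per well. Mean size was then plate-adjusted by subtracting the vehicle control mean and adding 6.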

| Structure (SMILES) | AC50 for larval growth inhibition [1] [µM] | lowest effective concentration [2] [µM] | mean nematode size ln(EXT) (ln) ([3]; 0.5 µM) | mean nematode size ln(EXT) (ln) ([3]; 1 µM) | mean nematode size ln(EXT) (ln) ([3]; 5 µM) | mean nematode size ln(EXT) (ln) ([3]; 10 µM) | mean nematode size ln(EXT) (ln) ([3]; 50 µM) | mean nematode size ln(EXT) (ln) ([3]; 100 µM) | mean nematode size ln(EXT) (ln) ([3]; 200 µM) |
| --- | --- | --- | --- | --- | --- | --- | --- | --- | --- |
| Cc1[nH]c(=O)n(C(C)(C)C)c(=O)c1Cl [Terbacil] | > 200 | 200 | 5.34 | 5.77 | 5.2 | 5.76 | 5.1 | 5.87 | 5.23 |
| CSc1ccc(Oc2ccc(S(N)(=O)=O)cc2CN(C)C)cc1C | > 200 | 200 | 5.74 | 5.87 | 5.86 | 5.84 | 5.83 | 5.69 | 5.17 |
| CCc1cccc(CC)c1N(COC)C(=O)CCl [Alachlor] | > 200 | 200 | 6.11 | 6.07 | 6.12 | 6.1 | 5.76 | 5.74 | 5.1 |
| CC/C(=C(\c1ccccc1)c1ccc(OCCN(C)C)cc1)c1ccccc1 [Tamoxifen] | 20.8 | 50 | 5.79 | 5.76 | 5.65 | 5.67 | 3.84 | 3.93 | 3.53 |
| CN(C)c1ccc(C(=C2C=CC(=[N+](C)C)C=C2)c2ccc(N(C)C)cc2)cc1 [Hexamethyl-p-rosaniline chloride] | < 0.5 | ≤ 0.5 | 4.79 | 4.53 | 4.01 | 3.85 | 3.66 | 4.08 | 4.02 |
| CC(C)(C)c1cc(O)ccc1O [tert-Butylhydroquinone] | > 200 | 50 | 5.85 | 5.85 | 5.96 | 5.81 | 5.62 | 5.41 | 5.03 |
| CC(C)=CCCC(C)CCO (stereo not given) [Citronellol] | > 200 | 200 | 5.82 | 5.87 | 5.92 | 5.78 | 5.86 | 5.73 | 5.6 |
| CCC(C)(C)c1ccc(O)c(C(C)(C)CC)c1 [Phenol, 2,4-bis(1,1-dimethylpropyl)-] | 175 | 10 | 5.8 | 5.87 | 5.76 | 5.65 | 5.4 | 4.93 | 4.37 |
| NC(=O)N(O)[C@@H]1C=C[C@H](Oc2cccc(Oc3ccc(F)cc3)c2)C1 | 72.9 | 100 | 5.9 | 6.14 | 6.17 | 6.17 | 5.89 | 5.05 | 4.86 |
| CC(C)(C)C(O)(CCc1ccc(Cl)cc1)Cn1cncn1 (stereo not given) [Tebuconazole] | 144 | 50 | 5.91 | 5.93 | 5.86 | 5.81 | 5.26 | 5.21 | 4.07 |
| CCOP(=S)(OCC)Oc1nc(Cl)n(C(C)C)n1 [Isazofos] | 3.38 | ≤ 0.5 | 4.88 | 5.05 | 4.5 | 4.43 | 3.8 | 3.59 | 3.78 |
| CO/N=C(/C1=NOCCO1)c1ccccc1Oc1ncnc(Oc2ccccc2Cl)c1F [Fluoxastrobin] | > 200 | 50 | 5.86 | 5.94 | 6.05 | 6.07 | 5.65 | 5.6 | 5.12 |
| CCSC(=O)N(CC)C1CCCCC1 [Cycloate] | 105 | 200 | 6.06 | 6.1 | 5.93 | 6.05 | 6.03 | 5.76 | 5.06 |
| CCNS(=O)(=O)C(F)(F)C(F)(F)C(F)(F)C(F)(F)C(F)(F)C(F)(F)C(F)(F)C(F)(F)F [Sulfluramid] | 31.4 | 5 | 5.81 | 5.84 | 5.48 | 5.23 | 4.32 | 4.08 | 3.24 |
| CCCCCCCCCCCCc1ccc(S(=O)(=O)O)cc1 [4-Dodecylbenzenesulfonic acid] | 27.5 | ≤ 0.5 | 5.45 | 5.6 | 5.55 | 5.63 | 4.03 | 3.77 | 3.53 |
| Oc1c(Cl)cc(Cl)cc1Cl [2,4,6-Trichlorophenol] | > 200 | 200 | 5.87 | 5.85 | 5.9 | 5.83 | 5.82 | 5.87 | 5.66 |
| CCCN(CCC)c1c([N+](=O)[O-])cc(C(C)C)cc1[N+](=O)[O-] [Isopropalin] | > 200 | 50 | 5.89 | 5.9 | 5.87 | 5.73 | 5.47 | 5.14 | 4.96 |
| O=P(Oc1ccccc1)(Oc1ccccc1)Oc1ccccc1 [Triphenyl phosphate] | 20.5 | 1 | 5.84 | 5.63 | 5.25 | 4.99 | 4.17 | 3.78 | 3.66 |
| CCOP(=S)(OCC)SCn1c(=O)oc2cc(Cl)ccc21 [Phosalone] | 9.77 | 10 | 5.76 | 5.7 | 5.97 | 4.73 | 4.26 | 4.06 | 3.72 |
| Cl[C@H]1[C@H](Cl)[C@@H](Cl)[C@@H](Cl)[C@H](Cl)[C@H]1Cl [Lindane] | 175 | 50 | 5.77 | 5.98 | 5.79 | 5.94 | 5.42 | 5.2 | 4.35 |
